Assay results from US20210278393A1, “METHOD FOR MEASURING SINGLE-CELL BIOMASS TO PREDICT CLINICAL OUTCOMES FOR STEM CELL TRANSPLANT PATIENTS” (VIRGINIA COMMONWEALTH UNIVERSITY, priority 2016, published 2021).

Experiments:
[1] = at recommended clinical dose, clinical trials; cited from earlier work
M249R4 cells = assay: HSLCI kinase inhibitor screen in Vemurafenib-resistant melanoma; format: cell-based, human
Procedure: (§1) Kinase inhibitor screen. 1× Dose Determination: For each inhibitor, a 1× dose was calculated. Briefly, recommended clinical doses were obtained from published package inserts. Doses were matched to peak serum concentrations (Cmax (ng/mL)) for each inhibitor as measured in clinical trials in which the recommended doses were utilized. Using each drugs' molecular weight, peak serum concentration values were converted to uM units and designated as 1×. […] Cobimetinib and Binimetinib were supplied as dry powders and suspended in DMSO to a final stock concentration of 10 mM upon receipt. Cell Preparation and Dosing: M249R4 cells were plated in a 24-well optical glass-bottomed plate (Cat. #P24-0-N, Cellvis) at 1×10^4 cells/ml (total of 1 mL in each of 24 wells) in media (DMEM, 10% Fetal Bovine Serum, 2 mM L-Glutamine) containing 1 uM Vemurafenib. Plated cells were allowed to adhere overnight at 37° C., 5% CO2. All cells were washed with 1× phosphate-buffered saline, pH 7.4, and provided with fresh media. Immediately following washing and feeding, cells were dosed with inhibitors at dose-escalating concentrations and incubated under standard cell culture conditions for 24 hours. After incubation, cells were imaged for 10 hours using the HSLCI system.
(§2) These inhibitors target a spectrum of kinases (Table 2). […] For each targeted kinase inhibitor, a 1× dose was calculated to match the peak tolerated serum concentration (Cmax (ng/mL)), as measured in clinical trials. Our first assay screened all seven inhibitors at several concentrations to identify those that elicited the most apparent reduction in cell growth rates.

[2] = Peak serum concentration (Cmax) in clinical trials at recommended clinical dose; format: in vivo, human; conditions: 1× dose for the screen
Procedure: as §1, §2

[3] = test system: all three parental lines (M229P, M238P, M249P); assay: HSLCI population kinetic response (biomass growth rate); format: cell-based, human; conditions: 5 μM Vemurafenib
Text: Live Cell Interferometry. The standard and high speed LCI platforms were based on a custom built inverted microscope, coupled to a quantitative phase detecting camera (SID4BIO, Phasics) which consists of a modified Shack-Hartman mask, fitted to a 1600×1200 pixel CCD camera [Imprex B1621]). The phase calculation down samples the raw image to 400×300 pixels, resulting in effective pixel sizes between 1.3 μm and 2.5 μm, depending on the objective. […] In both the standard and high speed systems, position was determined by maximizing contrast during a vertical scan though focus. […]
Image analysis. Raw interferograms were converted to phase images using the manufacturer's software and analyzed with our custom MATLAB script (The MathWorks). […] Using the resulting flattened phase images, single cells segmented from the background using Canny spatial-derivative edge detection algorithms, their locations, and optical volumes were recorded. […] Single cell growth tracks were quality filtered using an upper cutoff of +1-15% uncertainty (s.d. of residuals) in the calculated growth rate, as determined by linear fitting the biomass versus time data. […]

[4] = second assay, up to 10× concentration

SMILES | uM (1×) (peak serum concentration converted using molecular weight) [2] | Serum Conc. (ng/mL) (peak serum concentration, Cmax) [1] | dose response (M249R4 cells; first assay) | dose response (M249R4 cells; second assay, dosing range 0.05×-1×) | growth rate response (M249R4 cells; first assay, 0.1×) | growth rate response (M249R4 cells; second assay, doses greater than 0.1×) | cell killing (M249R4 cells; [4]) | dose response (M249R4 cells; [4]) | time by which significant growth rate reduction occurred [3]
CC(C)(C)c1nc(-c2cccc(NS(=O)(=O)c3c(F)cccc3F)c2F)c(-c2ccnc(N)n2)s1 [Dabrafenib] | 2.02 µM | 1050 ng/mL | – | – | slight reduction in growth rate | reduced growth rates | nor does it kill cells | does not elicit a dose response | –
CC(=O)Nc1cccc(-n2c(=O)n(C3CC3)c(=O)c3c(Nc4ccc(I)cc4F)n(C)c(=O)c(C)c32)c1 [Trametinib] | 0.04 µM | 22.2 ng/mL | – | – | – | – | – | – | –
CCCS(=O)(=O)Nc1ccc(F)c(C(=O)c2c[nH]c3ncc(-c4ccc(Cl)cc4)cc23)c1F [Vemurafenib] | 9.80 µM | 4800 ng/mL | – | – | – | – | – | – | ≤ 20 h

Second part, led by results:

uM (1×) (peak serum concentration converted using molecular weight) [2] | SMILES | Serum Conc. (ng/mL) (peak serum concentration, Cmax) [1] | dose response (M249R4 cells; first assay) | dose response (M249R4 cells; second assay, dosing range 0.05×-1×) | growth rate response (M249R4 cells; first assay, 0.1×) | growth rate response (M249R4 cells; second assay, doses greater than 0.1×) | cell killing (M249R4 cells; [4]) | dose response (M249R4 cells; [4]) | time by which significant growth rate reduction occurred [3]
0.58 µM | Cn1cnc2c(F)c(Nc3ccc(Br)cc3F)c(C(=O)NOCCO)cc21 [Binimetinib] | 257.0 ng/mL | slight dose response | – | – | – | – | – | –
0.51 µM | O=C(c1ccc(F)c(F)c1Nc1ccc(I)cc1F)N1CC(O)([C@@H]2CCCCN2)C1 [Cobimetinib] | 273 ng/mL | – | robust dose responses | – | – | – | – | –
2.55 µM | Cn1cnc2c(F)c(Nc3ccc(Br)cc3Cl)c(C(=O)NOCCO)cc21 [Selumetinib] | 1165 ng/mL | – | – | – | – | – | – | –
